Assay results taken from patent publication US10124065B2, “Lipids and lipid compositions for the delivery of active agents” (Novartis AG, priority 2013, dated 2018).
Where “and” joins values, the source holds several entries; their conditions need not be identical. Identical values can stand only once.

Experiments:
[1] = pKa measurement of cationic lipid (TNS fluorescence); format: physicochemical; details: probe TNS; pKa of the cationic lipid of formula (I); Table 4; read-out: pKa
Experimental: Unless indicated otherwise, all pKa's referred to herein were measured at standard temperature and pressure. Also, unless otherwise indicated, all references to pKa are references to pKa measured using the following technique. 2 mM solution of lipid in ethanol was prepared by weighing the lipid and then dissolving it in ethanol. 0.3 mM solution of fluorescent probe TNS in ethanol:methanol 9:1 was prepared by first making 3 mM solution of TNS in methanol and then diluting to 0.3 mM with ethanol. An aqueous buffer containing 200 mM sodium phosphate dibasic and 100 mM citric acid was prepared. […] Using the Hamilton Microlab Star high throughput liquid handler and Hamilton run control software Software, 7.5 uL of probe/lipid mix were added to 242.5 uL of buffer in a 1 mL 96 well plate (model NUNC 260252, […] Nunc International). This was done with all twelve buffers. After mixing in 1 mL 96 well plate, 100 uL of each probe/lipid/buffer mixture was transferred to a 250 uL black with clear bottom 96 well plate (model COSTAR 3904, Corning). The fluorescence measurements are carried out on the SpectraMax M5 spectrophotometer using software SoftMax pro 5.2 and following parameters: After the measurement, the background fluorescence value of an empty well on the 96 well plate was subtracted from each probe/lipid/buffer mixture. The fluorescence intensity values were then normalized to the value at lowest pH. The normalized fluorescence intensity vs. pH chart was then plotted in the Microsoft Excel software. The twelve points were connected with a smooth line. The point on the line at which the normalized fluorescence intensity was equal to 0.5 was found. […] The pKa determined using this method is precise to about 0.1 pKa units.

[2] = Particle size of lipid nanoparticle (dynamic light scattering, Malvern Zetasizer); format: physicochemical
Source text: The lipid nanoparticles have a size of about 1 to about 2,500 nm, about 1 to about 1,500 nm, about 1 to about 1,000 nm, in a sub-embodiment about 50 to about 600 nm, in a sub-embodiment about 50 to about 400 nm, in a sub-embodiment about 50 to about 250 nm, and in a sub-embodiment about 50 to about 150 nm. Unless indicated otherwise, all sizes referred to herein are the average sizes (diameters) of the fully formed nanoparticle, as measured by dynamic light scattering on a Malvern Zetasizer. The nanoparticle sample is diluted in phosphate buffered saline (PBS) so that the count rate is approximately 200-400 kcts. The data is presented as a weighted average of the intensity measure. Unless indicated otherwise, all particle size measurements referred to in Tables 4 and 5 are the Z-average particle size of the fully formed nanoparticle, as measured by dynamic light scattering on a Malvern Zetasizer. The nanoparticle sample was diluted in phosphate buffered saline (PBS) so that the count rate is approximately 200-400 kcts.

[3] = Polydispersity index (PDI) of lipid nanoparticle (dynamic light scattering); format: physicochemical
Experimental: Unless indicated otherwise, all PDIs referred to herein are the PDI of the fully formed nanoparticle, as measured by dynamic light scattering on a Malvern Zetasizer. The nanoparticle sample was diluted in phosphate buffered saline (PBS) so that the count rate was approximately 200-400 kcts. The data is presented in Tables 4 and 5 as a weighted average of the intensity measure.

[4] = system: plasma Factor VII enzyme activity; test: Mouse Factor VII dosing / Factor VII Activity Assay; format: in vivo; details: percent knock down of plasma Factor VII activity, CD-1 mice, 48 h; for KD FVII 0.03 mg/kg: single IV dose 0.03 mg/kg, LNP Chol/DSPC/S010 45/44/9/2
Experimental: Female CD-1 mice were received from Harlan Labs and maintained on standard lab chow and water ad libitum. The animals weighed approximately 25 grams at time of dosing. Formulated Factor VII siRNA was administered as a single dose intravenously via the lateral tail vein. Approximately 48 hours after injection, the mice were euthanized by CO2 inhalation followed by exsanguination through the vena cava. […] Plasma collected from injected mice was assayed for Factor VII enzyme activity using the Biophen FVII kit from Hyphen Biomedical (catalog number 221304). An assay standard curve was prepared using pooled plasma aliquots from the vehicle control animals. All samples were diluted to fall within the linear range of the standard curve and Factor VII activity relative to control plasma was reported. Lipid nanoparticles comprising lipid compounds of formula (I) and the FVII siRNA duplex sequence listed above were tested in the Factor VII Activity Assay. The results of this assay are given in Table 4 below as a percent knock down of plasma Factor VII enzyme activity at a dose of 0.3 mg/kg and 0.03 mg/kg.

[5] = system: respiratory syncytial virus F protein; test: Immunization studies, anti-RSV-F titers; format: in vivo; details: anti-RSV-F titer; BALB/c; course A = days 0 & 21; 4 weeks after second dose; liposomes with 0.1 μg vA317 replicon (naked: 1 μg)
Experimental: BALB/c were immunized with liposomes comprising DSPC, cholesterol, and various lipids of the invention (or, for comparison, the cationic lipid 1,2-dilinoleyloxy-N,N-dimethyl-3-aminopropane or ‘DLinDMA’). The liposomes encapsulated 0.1 μg of “vA317” self-replicating RNA replicon which encodes respiratory syncytial virus F protein (see WO2012/031043). […] Doses were given either on days 0 & 21 or days 0 & 42. Immune responses were assessed 2 weeks after each dose (2wp1, 2wp2), and in some cases also at 4 weeks after the second dose (4wp2).

[6] = FVII siRNA LNP, Chol/DSPC/S010, molar ratio 45/44/9/2, Z-average
[7] = FVII siRNA LNP, Chol/DSPC/S010, molar ratio 45/44/9/2
[8] = PLK1-424 siRNA LNP, Chol/DSPC/S010 45/44/9/2

pKa [1]	Size (nm) [2, 6] [nm]	PDI [3, 7]	SMILES	further results
6.08	–	–	CCCCCCCCCC(=O)OCCCCCCCCOc1cc(COC(=O)CCN(C)C)cc(OCCCCCCCCOC(=O)CCCCCCCCC)c1 [Ex. 123]	–
–	191.7	0.071	CCCCCCCC(=O)OCC(COC(=O)CCCCCCC)OC(=O)CCC(=O)OCc1cc(COC(=O)CCC(=O)OC(COC(=O)CCCCCCC)COC(=O)CCCCCCC)cc(CN(C)C)c1 [Ex. 107, bis(1,3-bis(octanoyloxy)propan-2-yl) O,O′-((5-((dimethylamino)methyl)-1,3-phenylene)bis(methylene))disuccinate]	–
–	128.5	0.005	CCCCCCCCCC(=O)OCCCCCCCC(=O)OCc1cc(COC(=O)CCCCCCCOC(=O)CCCCCCCCC)cc(CN(C)C)c1 [Example 83]	–
5.75	–	–	CCCCCCCC(=O)OCC(COC(=O)CCCCCCC)OCCCCOc1cc(CN(C)C)cc(OCCCCOC(COC(=O)CCCCCCC)COC(=O)CCCCCCC)c1 [Ex. 125, ((((5-((dimethylamino)methyl)-1,3-phenylene)bis(oxy))bis(butane-4,1-diyl))bis(oxy))bis(propane-3,2,1-triyl)tetraoctanoate]	–
–	81.16	0.049	CCCCC/C=C\C/C=C\CCCCCCCCOc1cc(COC(=O)CCN(C)C)cc(OCCCCCCCC/C=C\C/C=C\CCCCC)n1 [Example 31, (2,6-bis((9Z,12Z)-octadeca-9,12-dien-1-yloxy)pyridin-4-yl)methyl 3-(dimethylamino)propanoate]	–
5.46	–	–	CCCCCCCC(CCCCCCC)CCCC(=O)OCc1cc(COC(=O)CCCC(CCCCCCC)CCCCCCC)cc(CN(C)C)c1 [Ex. 117, (5-((dimethylamino)methyl)-1,3-phenylene)bis(methylene)bis(5-heptyldodecanoate)]	–
–	154.1	0.014	CCCCC/C=C\C/C=C\CCCCCCCCOC(=O)CCC(=O)OCc1cc(COC(=O)CCC(=O)OCCCCCCCC/C=C\C/C=C\CCCCC)cc(CN(C)C)c1 [Example 77, O,O′-((5-((dimethylamino)methyl)-1,3-phenylene)bis(methylene))di((9Z,12Z)-octadeca-9,12-dien-1-yl)disuccinate]	–
–	87.16	0.124	CCCCCCCC/C=C\CCCCCCCCOc1cc(CN(C)C)cc(OCCCCCCCC/C=C\CCCCCCCC)c1 [Example 1, 1-(3,5-bis((Z)-octadec-9-en-1-yloxy)phenyl)-N,N-dimethylmethanamine]	Size (nm) ([2]; FVII siRNA LNP, Chol/DSPC/PEG-DMG, molar ratio 45/44/9/2, Z-average): 98.2 nm; Size (nm) [2, 8]: 74.56 nm; PDI ([3]; FVII siRNA LNP, Chol/DSPC/PEG-DMG, molar ratio 45/44/9/2): 0.05; PDI [3, 8]: 0.152; KD FVII 0.03 mg/kg [4]: 30.8%; KD FVII 0.3 mg/kg ([4]; single IV dose 0.3 mg/kg, LNP Chol/DSPC/PEG-DMG 45/44/9/2): 75.1%
–	101.5	0.076	CCCCC/C=C\C/C=C\CCCCCCCCOC(=O)CCCCOc1cc(CN(C)C)cc(OCCCCC(=O)OCCCCCCCC/C=C\C/C=C\CCCCC)c1 [Example 89, di((9Z,12Z)-octadeca-9,12-dien-1-yl) 5,5′-((5-((dimethylamino)methyl)-1,3-phenylene)bis(oxy))dipentanoate]	–
5.06	–	–	CCCCC/C=C\C/C=C\CCCCCCCC(=O)OCCCCOc1cc(CCCN2CCOCC2)cc(OCCCCOC(=O)CCCCCCC/C=C\C/C=C\CCCCC)c1 [Ex. 122, (9Z,9′Z,12Z,12′Z)-((5-(3-morpholinopropyl)-1,3-phenylene)bis(oxy))bis(butane-4,1-diyl)bis(octadeca-9,12-dienoate)]	–
–	98.01	0.106	CCCCC/C=C\C/C=C\CCCCCCCC(=O)OCCCOc1cc(CN(C)C)cc(OCCCOC(=O)CC(CCCCCCCC)CCCCCCCC)c1 [Ex. 97, (9Z,12Z)-3-(3-((dimethylamino)methyl)-5-(3-((3-octylundecanoyl)oxy)propoxy)phenoxy)propyl octadeca-9,12-dienoate]	–
–	164.6	0.096	CCCCCCCCOC(=O)CCCCCCCC(=O)OCCCOc1cc(CN(C)C)cc(OCCCOC(=O)CCCCCCCC(=O)OCCCCCCCC)c1 [Ex. 98, O′^1,O^1-(((5-((dimethylamino)methyl)-1,3-phenylene)bis(oxy))bis(propane-3,1-diyl)) 9-dioctyl dinonanedioate]	–
5.91	–	–	CCCCC/C=C\CC=CCCCCCCCC(=O)OCCCCOc1cc(CN(C)C)cc(OCCCCOC(=O)CCCCCCCC=CC/C=C\CCCCC)c1C [Example 51, (9Z,9′Z,12Z,12′Z)-((5-((dimethylamino)methyl)-2-methyl-1,3-phenylene)bis(oxy))bis(butane-4,1-diyl)bis(octadeca-9,12-dienoate)]	–
–	–	–	CCCCCCCC(=O)OC[C@H](CCOc1cc(CN(C)C)cc(OCC[C@@H](COC(=O)CCCCCCC)OC(=O)CCCCCCC)c1)OC(=O)CCCCCCC [Example 93, (S)-4-(3-((S)-3,4-bis(octanoyloxy)butoxy)-5-((dimethylamino)methyl)phenoxy)butane-1,2-diyldioctanoate]	KD FVII 0.03 mg/kg [4]: 89.71%
5.75	–	–	CCCCCCCC(=O)OCCCCCCCCCCOc1cc(CN(C)C)cc(OCCCCCCCCCCOC(=O)CCCCCCC)c1OCCCCCCCCCCOC(=O)CCCCCCC [Ex. 99, ((5-((dimethylamino)methyl)benzene-1,2,3-triyl)tris(oxy))tris(decane-10,1-diyl)trioctanoate]	–
–	–	–	CCCCCCCC/C=C\CCCCCCCC(=O)OCCCCOc1cc(CN(C)C)cc(OCCCCOC(=O)CCCCCCC/C=C\CCCCCCCC)c1 [Example 60, (Z)-((5-((dimethylamino)methyl)-1,3-phenylene)bis(oxy))bis(butane-4,1-diyl)dioleate]	KD FVII 0.03 mg/kg [4]: 49.75%

SMILES	pKa [1]	Size (nm) [2, 6] [nm]	PDI [3, 7]	further results
CCCCC/C=C\C/C=C\CCCCCCCC(=O)OCCCCOc1cc(CN(C)C)cc(OCCCCOC(=O)CC(CCCCCCCC)CCCCCCCC)c1 [Ex. 109, (9Z,12Z)-4-(3-((dimethylamino)methyl)-5-(4-((3-octylundecanoyl)oxy)butoxy)phenoxy)butyl octadeca-9,12-dienoate]	–	91.98	0.09	KD FVII 0.03 mg/kg [4]: 68.97%
CCCCC/C=C\C/C=C\CCCCCCCCOc1cc(COC(=O)CCN(C)C)cc(OCCCCCCCC/C=C\C/C=C\CCCCC)c1 [Example 14, 3,5-bis((9Z,12Z)-octadeca-9,12-dien-1-yloxy)benzyl 3-(dimethylamino)propanoate]	–	81.74	0.059	4wp2 pool 1 [5]: 13687 and 21375; 4wp2 pool 2 [5]: 18851 and 21347
